# Several values for one entry are separate records, joined by “and”; a condition that tells them apart may be missing. Identical values can stand only once.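 Test compounds were applied to cells in 96-well plates for 48 hours at 5 doses. GI50: concentration for 50% inhibition of growth. Definition used: TGI = concentration required for complete inhibition of growth.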 Where a SMILES comes first, the peptide text is derived from it. The star is where a group is joined. Boc = CC(C)(C)OC(=O)*; Bn = c1ccc(C*)cc1
# Legend:
# Experiment in all cases: inhibition of tumour cell growth, NCI panel, 48 h
# SK-MEL-2 melanoma = test system: SK-MEL-2 melanoma
# OVCAR-8 ovarian = test system: OVCAR-8 ovarian
# CCRF-CEM leukemia = test system: CCRF-CEM leukemia
# RXF 393 renal = test system: RXF 393 renal
# 786-0 renal = test system: 786-0 renal
# A549 NSCLC = test system: A549 NSCLC
# HCT-15 colon = test system: HCT-15 colon
# OVCAR-5 ovarian = test system: OVCAR-5 ovarian
# HT29 colon = test system: HT29 colon
# RPMI-8226 leukemia = test system: RPMI-8226 leukemia
# SNB-75 CNS = test system: SNB-75 CNS
SMILES,TGI (SK-MEL-2 melanoma) [µM],TGI (OVCAR-8 ovarian),TGI (CCRF-CEM leukemia),TGI (RXF 393 renal),TGI (786-0 renal),TGI (A549 NSCLC),TGI (HCT-15 colon) [µM],TGI (OVCAR-5 ovarian),TGI (HT29 colon),TGI (RPMI-8226 leukemia),TGI (SNB-75 CNS),GI50 (CCRF-CEM leukemia),GI50 (RXF 393 renal),GI50 (A549 NSCLC),GI50 (OVCAR-5 ovarian),GI50 (SNB-75 CNS),GI50 (RPMI-8226 leukemia)
CCC1CCC2c3c([nH]c4ccc(C)cc34)C3C(=O)N(N(C)C)C(=O)C3C2C1 (centres undefined),> 100,> 100 µM,> 100 µM,57.7 µM,> 60.1 µM,> 100 µM,> 100,> 100 µM,> 100 µM,> 88.3 µM,–,–,–,–,–,–,–
Cc1nc2c3c(ccc2[nH]c1=O)C(=O)c1ccccc1C3=O,–,> 100 µM,–,> 100 µM,> 100 µM,> 100 µM,> 100,> 100 µM,> 100 µM,–,87 µM,–,–,–,–,–,–
COc1ccc2c(c1)[n+]([O-])c(/C(C)=N/NC(=O)c1ccccc1O)c(C)[n+]2[O-],> 100,> 100 µM,> 100 µM,> 100 µM,> 100 µM,> 100 µM,> 100,> 100 µM,> 100 µM,> 100 µM,–,–,–,–,–,–,–
NC(N)=NS(=O)(=O)c1ccc(NC(=O)c2cccc3c(N)c4ccccc4nc23)cc1,> 100,> 100 µM,> 100 µM,> 100 µM,> 100 µM,> 100 µM,> 100,> 100 µM,–,> 100 µM,> 100 µM,–,–,–,–,–,–
O=c1[nH]c(=O)n(CCOc2ccc(Cl)cc2)cc1Nc1ccccc1,–,–,> 100 µM,> 100 µM,> 100 µM,> 100 µM,> 100,> 100 µM,> 100 µM,> 100 µM,–,–,–,–,–,–,–
COc1ccc(-c2nc3c(C(=O)NCCN(C)C)cccc3c3ccccc23)cc1,18.4,20.6 µM,10.3 µM,–,6.86 µM,12.6 µM,9.46,18.2 µM,7.78 µM,–,17.6 µM,–,–,–,–,–,–
CCOc1cccc(-c2cc(=O)c3cc4c(cc3[nH]2)OCO4)c1,24.9,2.7 µM,–,1.82 µM,7.06 µM,28.9 µM,0.52,> 100 µM,0.593 µM,> 100 µM,36.1 µM,–,–,–,–,–,–
CNC(=O)C(CC(C)C)NC(=O)C(C)NC(=O)C(Cc1ccc(OCc2ccccc2)cc1)NC(=O)C(COCc1ccccc1)NC(=O)OC(C)(C)C (centres undefined) (Boc-S(Bn)Y(Bn)AL-NHMe; configuration not given here),–,35 µM and 48.5 µM,18.9 µM and 39.6 µM,> 100 µM and 24.3 µM,54.9 µM and 39.4 µM,> 100 µM and 51.4 µM,> 100,> 100 µM and 51.6 µM,> 38.9 µM and 30.9 µM,64.4 µM and 27 µM,> 31.6 µM and 22.9 µM,4.39 µM and 10.5 µM,47.6 µM and 7.04 µM,> 70.9 µM and 16.9 µM,> 73.2 µM and 21.2 µM,18.9 µM and 9 µM,24.8 µM and 4.27 µM
CC(C)c1ccc(/C=C/c2cc(C(=O)NNC(=O)NC3CCCCC3)nc(=S)[nH]2)cc1,–,> 100 µM,–,> 100 µM,> 100 µM,> 100 µM,> 100,> 100 µM,> 100 µM,> 100 µM,> 100 µM,–,–,–,–,–,–
CC(=O)Oc1ccc2cc(-c3ccc(OC(C)=O)c(OC(C)=O)c3)c(=O)oc2c1,> 100,> 100 µM,> 100 µM,–,> 100 µM,> 100 µM,> 100,> 100 µM,> 100 µM,> 100 µM,–,–,–,–,–,–,–
